Experimental data taken from patent publication US20240158446A1, “CYCLIC COMPOUND HAVING SELECTIVE INHIBITORY ACTION ON KRAS OVER HRAS AND NRAS” (CHUGAI SEIYAKU KABUSHIKI KAISHA, priority 2021, published 2024).
*1 amine or outer side, *2 acyl side, *3 side chain or, on linkers, in order; H or OH if unused. Where a SMILES comes first, the peptide text is derived from it. Bridges are numbered along the chain shown (N, C = ends). [ ]: non-standard residue; d: D form. The star is where a group is joined. hPhe(3,5-F2-4-CF3) = N[C@@H](CCc1cc(F)c(C(F)(F)F)c(F)c1)C(=O)O; hPhe(3-Cl-4-CF3) = N[C@@H](CCc1ccc(C(F)(F)F)c(Cl)c1)C(=O)O; NPrPhe(4-CF3) = CCCN[C@@H](Cc1ccc(C(F)(F)F)cc1)C(=O)O; NMeGly(cPent) = CN[C@H](C(=O)O)C1CCCC1; X8 = C[C@@](N[*:1])(C(=O)[*:2])C1CC1; Gly(cPent) = N[C@H](C(=O)O)C1CCCC1; NMeD = CN[C@@H](CC(=O)O)C(=O)O; NMeL = CN[C@@H](CC(C)C)C(=O)O; αMeS = C[C@](N)(CO)C(=O)O; Morpholide = C1CN(*)CCO1; Ac5c = NC1(C(=O)O)CCCC1; Aze = O=C(O)[C@@H]1CCN1; Sar = CNCC(=O)O; Allyl = C=CC*

Assays:
[1] = molecular target: GDP-bound HRAS wild-type protein (Homo sapiens, UniProt P01112); assay: Binding to HRAS by surface plasmon resonance (SPR), Single Cycle Kinetics; conditions: for HRAS/KRAS (ratio of KD value for HRAS to KD value for KRAS) / HRAS/KRAS (ratio of KD value with respect to HRAS to KD value with respect to KRAS): SPR, GDP-bound HRAS wild-type protein vs GDP-bound KRAS wild-type protein
Sequence of GDP-bound HRAS wild-type protein (P01112 whole entry): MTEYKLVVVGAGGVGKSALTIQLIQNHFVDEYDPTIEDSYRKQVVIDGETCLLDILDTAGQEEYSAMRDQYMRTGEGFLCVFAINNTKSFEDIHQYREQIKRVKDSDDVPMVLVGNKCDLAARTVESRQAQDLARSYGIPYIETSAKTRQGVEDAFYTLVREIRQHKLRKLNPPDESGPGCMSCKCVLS

[2] = molecular target: GDP-bound NRAS wild-type protein (Homo sapiens, UniProt P01111); assay: Binding to NRAS by surface plasmon resonance (SPR), Single Cycle Kinetics; conditions: for NRAS/KRAS (ratio of KD value for NRAS to KD value for KRAS) / NRAS/KRAS (ratio of KD value with respect to NRAS to KD value with respect to KRAS): SPR, GDP-bound NRAS wild-type protein vs GDP-bound KRAS wild-type protein
Sequence of GDP-bound NRAS wild-type protein (P01111 whole entry): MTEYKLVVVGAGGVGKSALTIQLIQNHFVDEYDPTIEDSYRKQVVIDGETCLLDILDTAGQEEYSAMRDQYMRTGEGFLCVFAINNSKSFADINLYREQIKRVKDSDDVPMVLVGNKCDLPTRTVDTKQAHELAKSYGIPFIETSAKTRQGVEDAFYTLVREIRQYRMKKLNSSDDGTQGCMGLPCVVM

[3] = system: human lung cancer strain NCI-H441;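 also: cell proliferation inhibition after four days measured by CellTiter-Glo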

Structure (SMILES)	HRAS/KRAS (ratio of KD value for HRAS to KD value for KRAS) [1]	NRAS/KRAS (ratio of KD value for NRAS to KD value for KRAS) [2]	IC50 [3]	HRAS/KRAS (ratio of KD value with respect to HRAS to KD value with respect to KRAS) [1]	NRAS/KRAS (ratio of KD value with respect to NRAS to KD value with respect to KRAS) [2]	HRAS/KRAS (ratio of KD value with respect to GDP-bound HRAS wild-type protein to KD value with respect to KRAS) ([1]; SPR KD ratio HRAS/KRAS, class symbols)	NRAS/KRAS (ratio of KD value with respect to GDP-bound NRAS wild-type protein to KD value with respect to KRAS) ([2]; SPR KD ratio NRAS/KRAS, class symbols)
CCO[C@@H]1C[C@H]2C(=O)NC3(CCC3)C(=O)N(C)[C@@H](C3CCCC3)C(=O)N(C)[C@H](C(=O)N(C)C)CC(=O)N(CC)[C@@H](CC(C)C)C(=O)N[C@@H]([C@@H](C)CC)C(=O)N(C)CC(=O)N(C)[C@H]3CC(C)=C(C)CN(C3=O)[C@@H](Cc3ccc(C(F)(F)F)cc3)C(=O)N(C)CC(=O)N[C@@H](CCc3cc(F)c(C(F)(F)F)c(F)c3)C(=O)N2C1 [PP1051]	C (A compound having a KD ratio of 0.1 or more and less than 3 is denoted as C)	C (A compound having a KD ratio of 0.1 or more and less than 3 is denoted as C)	286 nM	–	–	–	–
CCCN1C(=O)CN(C)C(=O)[C@@H]2CCN2C(=O)[C@H](C2CCCC2)NC(=O)[C@H](CC(C)C)N(C)C(=O)C[C@@H](C(=O)N2CCOCC2)N(C)C(=O)[C@H](C2CCCC2)N(C)C(=O)C2(CCCC2)NC(=O)[C@@H]2CCCN2C(=O)[C@H](CCc2ccc(C(F)(F)F)c(Cl)c2)NC(=O)CN(C)C(=O)[C@@H]1Cc1ccc(C(F)(F)F)cc1 [PP0306] ([NMeL][Gly(cPent)][Aze][Sar][NPrPhe(4-CF3)][Sar][hPhe(3-Cl-4-CF3)]P[Ac5c][NMeGly(cPent)][NMeD]-Morpholide; lactam N-11)	B (a compound having 3 or more and less than 10 is denoted as B)	B (a compound having 3 or more and less than 10 is denoted as B)	142 nM	–	–	–	–
CC[C@H](C)[C@@H]1NC(=O)[C@H](CC(C)C)N(C)C(=O)C[C@@H](C(=O)N2CCOCC2)N(C)C(=O)[C@H](C2CCCC2)N(C)C(=O)C2(CCCC2)NC(=O)[C@@H]2CCCN2C(=O)[C@H](CCc2ccc(C(F)(F)F)c(Cl)c2)NC(=O)CN(C)C(=O)[C@H](Cc2ccc(F)cc2)N2CCCC[C@@H](C2=O)N(C)C(=O)CN(C)C1=O [PP0530]	–	–	7 nM	B (a compound having 3 or more and less than 10 is denoted as B)	C (A compound having a KD ratio of 0.1 or more and less than 3 is denoted as C)	–	–
C=CCOC[C@]1(C)NC(=O)[C@@H]2CCCN2C(=O)[C@H](CCc2cc(F)c(C(F)(F)F)c(F)c2)NC(=O)CN(C)C(=O)[C@H](Cc2ccc(C(F)(F)F)cc2)N(CCC)C(=O)CN(C)C(=O)CN(C)C(=O)[C@H]([C@@H](C)CC)NC(=O)[C@H](CC(C)C)N(C)C(=O)C[C@@H](C(=O)N2CCOCC2)N(C)C(=O)[C@H](C2CCCC2)N(C)C1=O [PP0763] ([NMeL]I[Sar][Sar][NPrPhe(4-CF3)][Sar][hPhe(3,5-F2-4-CF3)]P[αMeS](Allyl)[NMeGly(cPent)][NMeD]-Morpholide; lactam N-11)	–	–	83 nM	B (a compound having 3 or more and less than 10 is denoted as B)	B (a compound having 3 or more and less than 10 is denoted as B)	–	–
CCCC[C@H]1C(=O)N[C@@H]([C@@H](C)CC)C(=O)N(C)CC(=O)N(C)[C@H]2C/C=C\CCN(C2=O)[C@@H](Cc2ccc(C)cc2)C(=O)N(C)CC(=O)N[C@@H](CCc2cc(F)c(C(F)(F)F)c(F)c2)C(=O)N2C[C@H](OCC)C[C@H]2C(=O)NC2(CC(C)(C)C2)C(=O)N(C)[C@@H](C2CCCC2)C(=O)N(C)[C@H](C(=O)N(C)C)CC(=O)N1C [PP2800]	–	–	7.9 nM	–	–	A (a compound having 10 or more and less than 20 is denoted as A)	A (a compound having 10 or more and less than 20 is denoted as A)
CCCN1C(=O)CN(C)C(=O)[C@@H]2CCN2C(=O)[C@H]([C@@H](C)CC)NC(=O)[C@H](CC(C)C)N(C)C(=O)C[C@@H](C(=O)N2CCOCC2)N(C)C(=O)[C@H](C2CCCC2)N(C)C(=O)[C@](C)(C2CC2)NC(=O)[C@@H]2CCCN2C(=O)[C@H](CCc2cc(F)c(C(F)(F)F)c(F)c2)NC(=O)CN(C)C(=O)[C@@H]1Cc1ccc(C(F)(F)F)cc1 [PP0772] ([NMeL]I[Aze][Sar][NPrPhe(4-CF3)][Sar][hPhe(3,5-F2-4-CF3)]P[X8][NMeGly(cPent)][NMeD]-Morpholide; lactam N-11)	–	–	434 nM	B (a compound having 3 or more and less than 10 is denoted as B)	B (a compound having 3 or more and less than 10 is denoted as B)	–	–
CC[C@H](C)[C@@H]1NC(=O)[C@H](CC(C)C)N(C)C(=O)C[C@@H](C(=O)N2CCOCC2)N(C)C(=O)[C@H](C2CCCC2)N(C)C(=O)C2(CCCC2)NC(=O)[C@@H]2CCCN2C(=O)[C@H](CCc2ccc(C(F)(F)F)c(Cl)c2)NC(=O)CN(C)C(=O)[C@H](Cc2ccccc2)N2CC=CC[C@@H](C2=O)N(C)C(=O)CN(C)C1=O [PP0528]	–	–	21.8 nM	C (A compound having a KD ratio of 0.1 or more and less than 3 is denoted as C)	C (A compound having a KD ratio of 0.1 or more and less than 3 is denoted as C)	–	–
CCO[C@@H]1C[C@H]2C(=O)NC3(CCC3)C(=O)N(C)[C@@H](C3CCCC3)C(=O)N(C)[C@H](C(=O)N3CCOCC3)CC(=O)N(C)[C@@H](COCC(F)(F)F)C(=O)N[C@@H]([C@@H](C)CC)C(=O)N(C)CC(=O)N(C)[C@H]3CCCCCN(C3=O)[C@@H](Cc3ccc(C(F)(F)F)cc3)C(=O)N(C)CC(=O)N[C@@H](CCc3cc(F)c(C(F)(F)F)c(F)c3)C(=O)N2C1 [PP0853]	B (a compound having 3 or more and less than 10 is denoted as B)	B (a compound having 3 or more and less than 10 is denoted as B)	24.3 nM	–	–	–	–
CCCN1C(=O)CN(C)C(=O)[C@@H]2CCN2C(=O)[C@H]([C@@H](C)CC)NC(=O)[C@H](CC(C)C)N(C)C(=O)C[C@@H](C(=O)N2CCOCC2)N(C)C(=O)[C@H](C2CCCC2)N(C)C(=O)C2(CCCC2)NC(=O)[C@@H]2CCCN2C(=O)[C@H](CCc2ccc(C(F)(F)F)c(Cl)c2)NC(=O)CN(C)C(=O)[C@@H]1Cc1ccc(C(F)(F)F)cc1 [PP0158] ([NMeL]I[Aze][Sar][NPrPhe(4-CF3)][Sar][hPhe(3-Cl-4-CF3)]P[Ac5c][NMeGly(cPent)][NMeD]-Morpholide; lactam N-11)	B (a compound having 3 or more and less than 10 is denoted as B)	A (a compound having 10 or more and less than 20 is denoted as A)	15.4 nM	–	–	–	–
CC[C@H](C)[C@@H]1NC(=O)[C@H](CC(C)C)N(C)C(=O)C[C@@H](C(=O)N2CCOCC2)N(C)C(=O)[C@H](C2CCCC2)N(C)C(=O)C2(CCCC2)NC(=O)[C@@H]2CCCN2C(=O)[C@H](CCc2ccc(C(F)(F)F)c(Cl)c2)NC(=O)CN(C)C(=O)[C@H](Cc2ccc(C)cc2)N2CC=CC[C@@H](C2=O)N(C)C(=O)CN(C)C1=O [PP0460]	–	–	5.4 nM	C (A compound having a KD ratio of 0.1 or more and less than 3 is denoted as C)	C (A compound having a KD ratio of 0.1 or more and less than 3 is denoted as C)	–	–
